Data on five compounds can be found in ChEMBL document CHEMBL5724914, “Linking interpersonal differences in gut microbiota composition and drug biotransformation activity” (2024).

Data set [1] is described as follows: The drug is tested on WLS-039 corresponding to human gut metagenome with ENA study accession number: PRJEB37062 and ENA sample accession number: ERS12561746 for biotransformation under anaerobic condition. The drug concentrations were measured over 9 timepoints collected between 0 and 24 hours of incubation by liquid-chromatography-coupled mass spectrometry (LC–MS). The settings on record: 2 µM.

The nature of data set [2]: The drug is tested on WLS-310 corresponding to human gut metagenome with ENA study accession number: PRJEB37062 and ENA sample accession number: ERS12561785 for biotransformation under anaerobic condition. The drug concentrations were measured over 9 timepoints collected between 0 and 24 hours of incubation by liquid-chromatography-coupled mass spectrometry (LC–MS). The settings on record: 2 µM.

Data set [3] can be described thus: The drug is tested on WLS-098 corresponding to human gut metagenome with ENA study accession number: PRJEB37062 and ENA sample accession number: ERS12561754 for biotransformation under anaerobic condition. The drug concentrations were measured over 9 timepoints collected between 0 and 24 hours of incubation by liquid-chromatography-coupled mass spectrometry (LC–MS). The settings on record: 2 µM.

The nature of data set [4]: The drug is tested on Z-008 corresponding to metagenome with ENA study accession number: PRJEB37062 and ENA sample accession number: ERS12561808 for biotransformation under anaerobic condition. The drug concentrations were measured over 9 timepoints collected between 0 and 24 hours of incubation by liquid-chromatography-coupled mass spectrometry (LC–MS). The settings on record: 2 µM.

The nature of data set [5]: The drug is tested on Z-004 corresponding to metagenome with ENA study accession number: PRJEB37062 and ENA sample accession number: ERS12561804 for biotransformation under anaerobic condition. The drug concentrations were measured over 9 timepoints collected between 0 and 24 hours of incubation by liquid-chromatography-coupled mass spectrometry (LC–MS). The settings on record: 2 µM.

A short description of data set [6]: The drug is tested on Z-025 corresponding to rabbit gut metagenome with ENA study accession number: PRJEB37062 and ENA sample accession number: ERS12561824 for biotransformation under anaerobic condition. The drug concentrations were measured over 9 timepoints collected between 0 and 24 hours of incubation by liquid-chromatography-coupled mass spectrometry (LC–MS). The settings on record: 2 µM.

For data set [7] the following is noted: human gut metagenome, 24 h, 2 µM.
Data set [8] is described as follows: The drug is tested on WLS-086 corresponding to human gut metagenome with ENA study accession number: PRJEB37062 and ENA sample accession number: ERS12561752 for biotransformation under anaerobic condition. The drug concentrations were measured over 9 timepoints collected between 0 and 24 hours of incubation by liquid-chromatography-coupled mass spectrometry (LC–MS). To be noted: 2 µM.

For data set [9] the following is noted: human gut metagenome, 24 h, 2 µM. This is another data set of the same source.
For data set [10] the following is noted: human gut metagenome, 24 h, 2 µM. This is another data set of the same source.
Data set [11] is described as follows: The drug is tested on Z-005 corresponding to metagenome with ENA study accession number: PRJEB37062 and ENA sample accession number: ERS12561805 for biotransformation under anaerobic condition. The drug concentrations were measured over 9 timepoints collected between 0 and 24 hours of incubation by liquid-chromatography-coupled mass spectrometry (LC–MS). To be noted: 2 µM.

The nature of data set [12]: The drug is tested on Z-016 corresponding to mouse gut metagenome with ENA study accession number: PRJEB37062 and ENA sample accession number: ERS12561815 for biotransformation under anaerobic condition. The drug concentrations were measured over 9 timepoints collected between 0 and 24 hours of incubation by liquid-chromatography-coupled mass spectrometry (LC–MS). The settings on record: 2 µM.

For data set [13] the following is noted: human gut metagenome, 24 h, 2 µM. This is another data set of the same source.
The conditions of data set [14]: human gut metagenome, 24 h, 2 µM. The source holds these as a separate data set.
For data set [15] the following is noted: human gut metagenome, 24 h, 2 µM. This is another data set of the same source.
For data set [16] the following is noted: human gut metagenome, 24 h, 2 µM. The source holds these as a separate data set.
Data set [17] in a line: The drug is tested on WLS-090 corresponding to human gut metagenome with ENA study accession number: PRJEB37062 and ENA sample accession number: ERS12561753 for biotransformation under anaerobic condition. The drug concentrations were measured over 9 timepoints collected between 0 and 24 hours of incubation by liquid-chromatography-coupled mass spectrometry (LC–MS). The settings on record: 2 µM.

Data set [18] can be described thus: The drug is tested on WLS-006 corresponding to human gut metagenome with ENA study accession number: PRJEB37062 and ENA sample accession number: ERS12561741 for biotransformation under anaerobic condition. The drug concentrations were measured over 9 timepoints collected between 0 and 24 hours of incubation by liquid-chromatography-coupled mass spectrometry (LC–MS). The settings on record: 2 µM.

The conditions of data set [19]: human gut metagenome, 24 h, 2 µM. The source holds these as a separate data set.
A short description of data set [20]: The drug is tested on Z-030 corresponding to mouse gut metagenome with ENA study accession number: PRJEB37062 and ENA sample accession number: ERS12561829 for biotransformation under anaerobic condition. The drug concentrations were measured over 9 timepoints collected between 0 and 24 hours of incubation by liquid-chromatography-coupled mass spectrometry (LC–MS). To be noted: 2 µM.
Further: call rule not given here.

For `CS(=O)(=O)O.OC(CCN1CCCCC1)(c1ccccc1)c1ccccc1` [PRIDINOL METHANESULFONATE], the “Bacterial Biotransformation” value in data set [1] was “Compound NOT metabolized”; in data set [2], “Compound metabolized”; in data set [3], “Compound metabolized”; in data set [4], “Compound NOT metabolized”; in data set [5] it was “Compound NOT metabolized”; in data set [6], “Compound NOT metabolized”. The “Bacterial Biotransformation” value in data set [7] is reported as “Compound metabolized”; in data set [8], “Compound metabolized”; in data set [9], “Compound NOT metabolized”; in data set [10], “Compound metabolized”; in [11], “Compound NOT metabolized”; in data set [12], “Compound NOT metabolized”. In addition, the “Bacterial Biotransformation” value in data set [13] is “Compound metabolized”; in data set [14], “Compound NOT metabolized”; in data set [15], “Compound metabolized”; in data set [16], “Compound NOT metabolized”; in data set [17], “Compound metabolized”; in [18] it was “Compound metabolized”. Also, the “Bacterial Biotransformation” value in data set [19] and in [20] was “Compound NOT metabolized” in each case.

For `CC(CN1c2ccccc2Sc2ccccc21)N(C)C` (stereo not given) [PROMETHAZINE], the “Bacterial Biotransformation” value is “Compound metabolized” in [1]; “Compound metabolized” in [2]; “Compound metabolized” in [3]; “Compound NOT metabolized” in [4]; “Compound NOT metabolized” in data set [5]; “Compound metabolized” in [6]. For the same compound, the “Bacterial Biotransformation” value is “Compound metabolized” in [7]; “Compound metabolized” in data set [8]; “Compound metabolized” in data set [9]; “Compound metabolized” in data set [10]; “Compound NOT metabolized” in [11]; “Compound NOT metabolized” in [12]. In addition, the “Bacterial Biotransformation” value is “Compound metabolized” in [13]; “Compound NOT metabolized” in [14]; “Compound NOT metabolized” in [15]; “Compound NOT metabolized” in data set [16]; “Compound metabolized” in data set [17]; “Compound metabolized” in data set [18]. Further, the figures for the “Bacterial Biotransformation” value in data set [19] and in data set [20] were “Compound metabolized” and “Compound NOT metabolized”, respectively.

Consider `OCCOCCN1CCN(C2=Nc3ccccc3Sc3ccccc32)CC1` [QUETIAPINE], for which the “Bacterial Biotransformation” value in data set [1] is “Compound NOT metabolized”; in data set [2] it was “Compound NOT metabolized”; in data set [3], “Compound metabolized”; in data set [4], “Compound NOT metabolized”; in data set [5], “Compound metabolized”; in [6] it was “Compound metabolized”. In addition, the “Bacterial Biotransformation” value in data set [7] is reported as “Compound metabolized”; in data set [8] it was “Compound metabolized”; in data set [9] it was “Compound NOT metabolized”; in [10] it was “Compound metabolized”; in data set [11], “Compound NOT metabolized”; in data set [12], “Compound NOT metabolized”. Besides, the “Bacterial Biotransformation” value is given as “Compound NOT metabolized” in data set [13]; “Compound NOT metabolized” in data set [14]; “Compound metabolized” in [15]; “Compound NOT metabolized” in data set [16]; “Compound metabolized” in data set [17]; “Compound NOT metabolized” in data set [18]. The “Bacterial Biotransformation” value in data set [19] and in [20] was “Compound NOT metabolized” throughout.

For the compound `CCC(=O)NCC[C@@H]1CCc2ccc3c(c21)CCO3` [RAMELTEON], the “Bacterial Biotransformation” value was “Compound metabolized” in data set [1]; “Compound metabolized” in data set [2]; “Compound metabolized” in data set [3]; “Compound metabolized” in [4]; “Compound metabolized” in [5]; “Compound NOT metabolized” in [6]. For the same compound, the “Bacterial Biotransformation” value in data set [7] is given as “Compound metabolized”; in data set [8], “Compound metabolized”; in data set [9], “Compound metabolized”; in data set [10] it was “Compound metabolized”; in data set [11], “Compound NOT metabolized”; in [12], “Compound metabolized”. Further, the “Bacterial Biotransformation” value in data set [13] is listed as “Compound metabolized”; in data set [14], “Compound metabolized”; in data set [15] it was “Compound NOT metabolized”; in [16] it was “Compound metabolized”; in data set [17] it was “Compound metabolized”; in [18] it was “Compound metabolized”. Further, the figures for the “Bacterial Biotransformation” value in [19] and in data set [20] were “Compound metabolized” and “Compound NOT metabolized”, respectively.

Turning to `CNC(=C[N+](=O)[O-])NCCSCc1ccc(CN(C)C)o1` [RANITIDINE], the “Bacterial Biotransformation” value in data set [1] is on record as “Compound NOT metabolized”; in data set [2] it was “Compound metabolized”; in [3] it was “Compound NOT metabolized”; in [4], “Compound NOT metabolized”; in data set [5] it was “Compound metabolized”; in data set [6] it was “Compound NOT metabolized”. Moreover, the “Bacterial Biotransformation” value in data set [7] is on record as “Compound NOT metabolized”; in data set [8], “Compound NOT metabolized”; in data set [9], “Compound NOT metabolized”; in [10], “Compound metabolized”; in data set [11], “Compound NOT metabolized”; in [12] it was “Compound metabolized”. Also, the “Bacterial Biotransformation” value in data set [13] is on record as “Compound metabolized”; in [14] it was “Compound NOT metabolized”; in data set [15] it was “Compound NOT metabolized”; in data set [16], “Compound metabolized”; in [17], “Compound NOT metabolized”; in data set [18], “Compound metabolized”. In addition, the “Bacterial Biotransformation” value in data set [19] and in data set [20] was “Compound NOT metabolized” in each case.
